Test [1] has as its target T1, FAAH (Mus musculus, UniProt O08914).
T1 construct: A fragment of liver, left lung lobe and brain without cerebellum were removed; from tissue; host or cells: male NMRI mice; brain (without cerebellum) and liver homogenates
T1 sequence (O08914 1-579): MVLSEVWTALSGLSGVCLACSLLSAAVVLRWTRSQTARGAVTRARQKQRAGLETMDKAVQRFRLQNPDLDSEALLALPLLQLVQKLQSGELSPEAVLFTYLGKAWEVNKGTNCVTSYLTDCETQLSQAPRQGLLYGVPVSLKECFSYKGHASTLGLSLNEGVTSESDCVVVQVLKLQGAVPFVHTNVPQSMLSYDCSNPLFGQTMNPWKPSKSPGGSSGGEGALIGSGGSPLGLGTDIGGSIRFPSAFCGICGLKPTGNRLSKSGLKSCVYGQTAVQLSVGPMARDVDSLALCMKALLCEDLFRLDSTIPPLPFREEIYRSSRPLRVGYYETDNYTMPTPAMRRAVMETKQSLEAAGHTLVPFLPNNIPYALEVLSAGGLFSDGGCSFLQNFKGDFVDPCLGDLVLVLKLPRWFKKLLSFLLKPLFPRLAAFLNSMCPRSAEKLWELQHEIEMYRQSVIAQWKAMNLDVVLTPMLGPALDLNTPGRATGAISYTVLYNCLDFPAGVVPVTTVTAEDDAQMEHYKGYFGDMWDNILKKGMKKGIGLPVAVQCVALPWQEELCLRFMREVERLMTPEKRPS
Nature of the test: In vivo FAAH inhibition after oral dosing, remaining activity in brain homogenate (BRh, central nervous tissue). On the set-up: species or system NMRI mice. The settings on record: brain homogenate; for In Vivo BRh 3 mg·kg 8 h (remaining FAAH activity, % of control): 8 h after dosing, low value = strong inhibitor. The method, boiled down: (§1)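 Remaining FAAH activity is given as % of vehicle-treated controls after blank subtraction, measured by radiolabelled AEA hydrolysis (2 μM AEA, 5 nM 3H-AEA, 37 °C) in brain (10 min) or liver (7 min) homogenates. These came from fasted male NMRI mice dosed orally at 30 or 3 mg/kg.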

In test [2] the target is T2, FAAH (Rattus norvegicus, UniProt P97612).
T2 construct: Frozen brains (without cerebellum) from Wistar rats were used; from tissue; host or cells: Wistar rat brain (without cerebellum), washed membrane pellets
T2 sequence (P97612 1-579): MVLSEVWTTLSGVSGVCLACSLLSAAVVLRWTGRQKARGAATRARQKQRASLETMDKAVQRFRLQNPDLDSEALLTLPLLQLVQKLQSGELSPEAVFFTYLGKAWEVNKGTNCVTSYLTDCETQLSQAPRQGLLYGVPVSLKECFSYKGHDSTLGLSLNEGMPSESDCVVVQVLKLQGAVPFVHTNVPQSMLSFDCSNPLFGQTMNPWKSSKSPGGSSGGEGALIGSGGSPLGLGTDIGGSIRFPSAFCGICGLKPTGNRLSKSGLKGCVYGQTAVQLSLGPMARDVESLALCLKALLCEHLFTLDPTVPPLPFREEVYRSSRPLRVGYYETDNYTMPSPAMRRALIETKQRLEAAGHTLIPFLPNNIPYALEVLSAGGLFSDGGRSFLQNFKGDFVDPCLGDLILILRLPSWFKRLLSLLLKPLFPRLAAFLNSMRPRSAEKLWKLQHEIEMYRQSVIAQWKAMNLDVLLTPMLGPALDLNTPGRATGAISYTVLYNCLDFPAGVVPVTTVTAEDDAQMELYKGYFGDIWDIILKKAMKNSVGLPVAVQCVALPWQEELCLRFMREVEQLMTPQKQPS
Nature of the test: In vitro FAAH activity in rat brain membranes, 3H-AEA substrate, % of control. The class given is biochemical, Wistar rats. As to conditions: low value = strong inhibitor; for In Vitro 100 nM (FAAH activity, % of control): rat brain membranes, compound at 100 nM; for In Vitro FAAH activity, 100 nM: 100 nM test compound; for In Vitro FAAH activity, 10 uM: 10 uM test compound. The method, boiled down: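 FAAH activity measured as 3H-ethanolamine released from 2 μM [3H]AEA over 10 min by rat brain membrane preparation, after 15 min 37 °C preincubation with test compound at 10 or 0.1 μM. Charcoal-separated supernatant scintillation-counted; values expressed as % of control minus no-protein blank.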

For test [3], the target named is T1, FAAH. In words: In vivo FAAH inhibition after oral dosing, remaining activity in liver homogenate (LVh, peripheral tissue). As to conditions: liver homogenate; for In Vivo LVh 3 mg·kg 8 h (remaining FAAH activity, % of control): 8 h after dosing, low value = strong inhibitor. Also noted: species or system NMRI mice. The method, boiled down:
as §1

Turning to `Cc1nc(-c2ccccc2)nn1C(=O)N1COCC1(C)C` [Compound 286, (4,4-dimethyloxazolidin-3-yl)(5-methyl-3-phenyl-1H-1,2,4-triazol-1-yl)methanone], the “In Vivo BRh 3 mg·kg 8 h (remaining FAAH activity, % of control)” value in test [1] is 104 % of control. For the same compound, in test [2], the “In Vitro 100 nM (FAAH activity, % of control)” value is reported as 112.8 % of control. For the same compound, the “In Vivo LVh 3 mg·kg 8 h (remaining FAAH activity, % of control)” value in test [3] is on record as 93 % of control.
In the case of `O=C(N1CCC(Cc2ccccc2)CC1)n1cnc(-c2ccc(F)cc2F)n1` [Compound 79, (4-benzylpiperidin-1-yl)(3-(2,4-difluorophenyl)-1H-1,2,4-triazol-1-yl)methanone], in test [1], the “In Vivo BRh 3 mg/kg 8 h, remaining FAAH activity” value was 70 % of control and the “In Vivo BRh 30 mg/kg 1 h, remaining FAAH activity” value is reported as 10.3 % of control. In addition, the “In Vitro FAAH activity, 100 nM” value in test [2] is reported as 0.8 % of control. Further, in test [3], the “In Vivo LVh 3 mg/kg 8 h, remaining FAAH activity” value is on record as 45.2 % of control and the “In Vivo LVh 30 mg/kg 1 h, remaining FAAH activity” value is on record as 9.8 % of control.
`CN(C(=O)n1cnc(-c2ccc3ccccc3c2)c1)c1ccccc1` [Compound 14, N-methyl-4-(naphthalen-2-yl)-N-phenyl-1H-imidazole-1-carboxamide]: the “In Vivo BRh 30 mg/kg 1 h, remaining FAAH activity” value in test [1] is reported as 96.7 % of control. In test [2], the “In Vitro FAAH activity, 100 nM” value is on record as 68.3 % of control and the “In Vitro FAAH activity, 10 uM” value is on record as 0 % of control. Besides, the “In Vivo LVh 30 mg/kg 1 h, remaining FAAH activity” value in test [3] is recorded as 77.3 % of control.
Regarding `CC1(C)COCN1C(=O)n1cnc(-c2ccc(O)c(F)c2)c1` [Compound 332, (4,4-dimethyloxazolidin-3-yl)(4-(3-fluoro-4-hydroxyphenyl)-1H-imidazol-1-yl)methanone], in test [1], the “In Vivo BRh 3 mg·kg 8 h (remaining FAAH activity, % of control)” value was 60 % of control. Further, in test [2], the “In Vitro 100 nM (FAAH activity, % of control)” value is on record as 88.5 % of control. Moreover, the “In Vivo LVh 3 mg·kg 8 h (remaining FAAH activity, % of control)” value in test [3] is on record as 19.5 % of control.
Regarding `CN(C(=O)n1cnc(-c2ccc(F)c(F)c2)c1)C1CCCCC1` [Compound 272, N-cyclohexyl-4-(3,4-difluorophenyl)-N-methyl-1H-imidazole-1-carboxamide], in test [1], the “In Vivo BRh 3 mg/kg 8 h, remaining FAAH activity” value is listed as 19 % of control. For the same compound, in test [2], the “In Vitro FAAH activity, 100 nM” value is listed as 63.6 % of control. Besides, the “In Vivo LVh 3 mg/kg 8 h, remaining FAAH activity” value in test [3] is 7.1 % of control.
Consider `CCC1(C)OCCN1C(=O)n1cnc(-c2ccc(Cl)cc2)c1` (stereo not shown) [Compound 233, (4-(4-chlorophenyl)-1H-imidazol-1-yl)(2-ethyl-2-methyloxazolidin-3-yl)methanone], for which the “In Vivo BRh 3 mg/kg 8 h, remaining FAAH activity” value in test [1] is 33.5 % of control. The “In Vitro FAAH activity, 100 nM” value in test [2] is recorded as 74.1 % of control. The “In Vivo LVh 3 mg/kg 8 h, remaining FAAH activity” value in test [3] is on record as 21.1 % of control.
The matching figures for `CN(Cc1ccccc1)C(=O)n1cnc(-c2ccc(Oc3ccc(C(N)=O)cc3)cc2)n1` [Compound 151, N-benzyl-3-(4-(4-carbamoylphenoxy)phenyl)-N-methyl-1H-1,2,4-triazole-1-carboxamide]: 116.7 % of control, 0.4 % of control and 65.8 % of control.
Take `Cc1c(-c2ccccc2)ncn1C(=O)N1COCC1(C)C` [Compound 263, (4,4-dimethyloxazolidin-3-yl)(5-methyl-4-phenyl-1H-imidazol-1-yl)methanone]: the “In Vivo BRh 3 mg/kg 8 h, remaining FAAH activity” value in test [1] was 98.1 % of control. The “In Vitro FAAH activity, 100 nM” value in test [2] is reported as 92.1 % of control. Moreover, in test [3], the “In Vivo LVh 3 mg/kg 8 h, remaining FAAH activity” value is recorded as 98.8 % of control.
For the compound `O=C(N1CCN(c2ccccn2)CC1)n1nnc2ccccc21` [Compound 49, (1H-benzo[d][1,2,3]triazol-1-yl)(4-(pyridin-2-yl)piperazin-1-yl)methanone], the “In Vivo BRh 30 mg/kg 1 h, remaining FAAH activity” value in test [1] was 16.9 % of control. Also, the “In Vitro FAAH activity, 100 nM” value in test [2] is recorded as 0.1 % of control. The “In Vivo LVh 30 mg/kg 1 h, remaining FAAH activity” value in test [3] is 14.9 % of control.
On to `CC1(C)COCN1C(=O)n1cnc(-c2ccc(O)cc2)c1` [Compound 260, (4,4-dimethyloxazolidin-3-yl)(4-(4-hydroxyphenyl)-1H-imidazol-1-yl)methanone], for which, in test [1], the “In Vivo BRh 3 mg/kg 8 h, remaining FAAH activity” value is 8.1 % of control. Besides, in test [2], the “In Vitro FAAH activity, 100 nM” value was 95.3 % of control and the “In Vitro FAAH activity, 10 uM” value is 37.3 % of control. Further, the “In Vivo LVh 3 mg/kg 8 h, remaining FAAH activity” value in test [3] is on record as 7.8 % of control.
On to `O=C(N1CCN(c2ccccc2)CC1)n1cnc(-c2cccs2)n1` [Compound 155, (4-phenylpiperazin-1-yl)(3-(thiophen-2-yl)-1H-1,2,4-triazol-1-yl)methanone], for which the “In Vivo BRh 3 mg/kg 8 h, remaining FAAH activity” value in test [1] is 144.1 % of control. The “In Vitro FAAH activity, 100 nM” value in test [2] is 0.4 % of control. Besides, the “In Vivo LVh 3 mg/kg 8 h, remaining FAAH activity” value in test [3] is listed as 108.2 % of control.
Regarding `CN(C(=O)n1cnc(-c2ccccc2)c1)C1CCOCC1` [Compound 278, N-methyl-4-phenyl-N-(tetrahydro-2H-pyran-4-yl)-1H-imidazole-1-carboxamide], the “In Vivo BRh 3 mg·kg 8 h (remaining FAAH activity, % of control)” value in test [1] is reported as 1.6 % of control. In test [2], the “In Vitro 100 nM (FAAH activity, % of control)” value is recorded as 103.5 % of control. In addition, in test [3], the “In Vivo LVh 3 mg·kg 8 h (remaining FAAH activity, % of control)” value is reported as 1.8 % of control.
Consider `CN(C(=O)n1cnc(-c2ccc(N)cc2)c1)c1ccccc1` [Compound 199, 4-(4-aminophenyl)-N-methyl-N-phenyl-1H-imidazole-1-carboxamide], for which, in test [1], the “In Vivo BRh 3 mg/kg 8 h, remaining FAAH activity” value is listed as 45.9 % of control. Moreover, the “In Vitro FAAH activity, 100 nM” value in test [2] is on record as 89 % of control. Besides, the “In Vivo LVh 3 mg/kg 8 h, remaining FAAH activity” value in test [3] was 19.7 % of control.
For the compound `CN(C(=O)n1nnc2ccccc21)c1ccc(Cl)cc1` [Compound 63, N-(4-chlorophenyl)-N-methyl-1H-benzo[d][1,2,3]triazole-1-carboxamide], the “In Vivo BRh 30 mg/kg 1 h, remaining FAAH activity” value in test [1] was 57 % of control. The “In Vitro FAAH activity, 100 nM” value in test [2] is 12.6 % of control. Further, the “In Vivo LVh 30 mg/kg 1 h, remaining FAAH activity” value in test [3] is listed as 49.7 % of control.
With `CN(CCOCc1ccccc1)C(=O)n1nnc2ccccc21` [Compound 156, N-(2-(benzyloxy)ethyl)-N-methyl-1H-benzo[d][1,2,3]triazole-1-carboxamide], the “In Vivo BRh 3 mg/kg 8 h, remaining FAAH activity” value in test [1] is on record as 67.2 % of control. Besides, the “In Vitro FAAH activity, 100 nM” value in test [2] is 0.1 % of control. For the same compound, the “In Vivo LVh 3 mg/kg 8 h, remaining FAAH activity” value in test [3] is reported as 24.4 % of control.
As for `O=C(N1CCN(c2ccccc2)CC1)n1cnc(Cc2ccccc2)n1` [Compound 182, (3-benzyl-1H-1,2,4-triazol-1-yl)(4-phenylpiperazin-1-yl)methanone], the “In Vivo BRh 3 mg/kg 8 h, remaining FAAH activity” value in test [1] is listed as 90.6 % of control. The “In Vitro FAAH activity, 100 nM” value in test [2] is reported as 0.6 % of control. For the same compound, in test [3], the “In Vivo LVh 3 mg/kg 8 h, remaining FAAH activity” value is 111 % of control.
For the compound `CC1(C)OCCN1C(=O)n1cnc(-c2ccccc2)c1` [Compound 220, (2,2-dimethyloxazolidin-3-yl)(4-phenyl-1H-imidazol-1-yl)methanone], in test [1], the “In Vivo BRh 3 mg/kg 8 h, remaining FAAH activity” value is listed as 31.5 % of control. For the same compound, the “In Vitro FAAH activity, 100 nM” value in test [2] is on record as 103.7 % of control. In addition, the “In Vivo LVh 3 mg/kg 8 h, remaining FAAH activity” value in test [3] is 20 % of control.

The record behind these values is patent US9353082B2, “Pharmaceutical compounds” (BIAL—PORTELA & CA, S.A., priority 2008, dated 2016).
